Earlier results, collected in patent US20160095850A1, “METHODS AND COMPOSITIONS FOR TREATMENT OF HIV INFECTION” (COOPER HUMAN SYSTEMS LLC, priority 2013, published 2016).

Assays:
[1] = human, in vivo
[2] = system: A549 cells; conditions: read-out: EC50, dose-dependent increase in acetylated histone levels
[3] = system: HDAC activity in HeLa extracts; conditions: read-out: IC50 for inhibition of HDAC activity
[4] = molecular target: HDAC3 (Homo sapiens, UniProt O15379)
[5] = molecular target: T1, HDAC8 (Homo sapiens, UniProt Q9BY41)
T1 sequence (Q9BY41 1-377): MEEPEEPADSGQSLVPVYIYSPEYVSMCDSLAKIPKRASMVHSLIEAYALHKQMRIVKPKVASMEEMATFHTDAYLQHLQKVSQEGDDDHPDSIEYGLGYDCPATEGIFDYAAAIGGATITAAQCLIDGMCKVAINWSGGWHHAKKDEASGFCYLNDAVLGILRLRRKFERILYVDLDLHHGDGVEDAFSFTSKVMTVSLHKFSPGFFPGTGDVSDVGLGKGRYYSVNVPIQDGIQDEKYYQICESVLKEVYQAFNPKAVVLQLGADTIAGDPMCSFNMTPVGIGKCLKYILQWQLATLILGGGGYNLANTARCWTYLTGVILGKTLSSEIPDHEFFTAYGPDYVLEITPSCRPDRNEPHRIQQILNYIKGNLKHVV

[6] = system: other HDAC members
[7] = system: HIV RNA expression in CD4 T cells
[8] = system: HIV-RNA in resting CD4 T cells; conditions: single dose of 400 mg
[9] = system: CD8 T(EM) cells

Chain of HDAC3 (O15379 whole entry): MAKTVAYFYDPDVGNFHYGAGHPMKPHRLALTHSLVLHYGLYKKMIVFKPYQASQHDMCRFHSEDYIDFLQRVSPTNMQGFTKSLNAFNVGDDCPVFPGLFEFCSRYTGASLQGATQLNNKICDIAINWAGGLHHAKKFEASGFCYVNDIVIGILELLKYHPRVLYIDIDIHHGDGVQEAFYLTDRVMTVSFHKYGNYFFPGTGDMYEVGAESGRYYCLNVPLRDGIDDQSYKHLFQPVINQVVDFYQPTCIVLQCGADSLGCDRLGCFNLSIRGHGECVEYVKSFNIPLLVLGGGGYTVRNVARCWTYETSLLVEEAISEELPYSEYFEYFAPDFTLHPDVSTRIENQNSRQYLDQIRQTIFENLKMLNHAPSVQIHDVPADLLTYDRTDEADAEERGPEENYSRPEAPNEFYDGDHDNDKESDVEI
Chain of HDAC3 (Q9Y618 395-489 partner limits assumed): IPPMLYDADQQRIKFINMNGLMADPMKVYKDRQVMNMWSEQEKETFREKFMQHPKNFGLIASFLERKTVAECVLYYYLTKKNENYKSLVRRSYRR

NCCCCN(Cc1nc2ccccc2[nH]1)[C@H]1CCCc2cccnc21 [AMD070]
median estimated terminal half-life [1]: 7.6 to 12.6 h

Nc1ccccc1NC(=O)CCCCCCC(=O)Nc1ccccc1 [BML-210]
EC50 [2]: 36 µM
IC50 [3]: 80 µM

Cc1cc(Cl)ccc1OCCCC(=O)NO [Droxinostat]
IC50 [4]: 16.9 µM
IC50 [5]: 1.46 µM
IC50 [6]: > 20 µM

O=C(CCCCCCC(=O)NO)NO [SBHA, Suberohydroxamic acid]
IC50 [4]: 0.3 µM

O=C(CCCCCCC(=O)Nc1ccccc1)NO [Vorinostat, suberoylanilide hydroxamic acid]
course of the induction of HIV RNA [7]: transient and diminished after 24 hours
evaluated subjects with significantly increased expression of HIV-RNA in isolated resting CD4 T cells [8]: 8 of 8

IL-15: cytokine promoting activation and maintenance of NK and CD8 T effector memory cells
expansion of CD8 T(EM) cells in the peripheral blood ([9]; 20 μg/kg/d by continuous intravenous infusion for 10 days): 100 fold
expansion of CD8 T(EM) cells ([9]; 20-40 μg/kg/d by subcutaneous injection): 10 fold
